We go through three sequences from publication PMC9882058 (bioRxiv, 2023).

This test addresses TcdA (Clostridioides difficile, UniProt P16154). To be noted: peptides on beads; 0.2 µM TcdA-AF594; qualitative.

Chain of TcdA (P16154 whole entry, looked up): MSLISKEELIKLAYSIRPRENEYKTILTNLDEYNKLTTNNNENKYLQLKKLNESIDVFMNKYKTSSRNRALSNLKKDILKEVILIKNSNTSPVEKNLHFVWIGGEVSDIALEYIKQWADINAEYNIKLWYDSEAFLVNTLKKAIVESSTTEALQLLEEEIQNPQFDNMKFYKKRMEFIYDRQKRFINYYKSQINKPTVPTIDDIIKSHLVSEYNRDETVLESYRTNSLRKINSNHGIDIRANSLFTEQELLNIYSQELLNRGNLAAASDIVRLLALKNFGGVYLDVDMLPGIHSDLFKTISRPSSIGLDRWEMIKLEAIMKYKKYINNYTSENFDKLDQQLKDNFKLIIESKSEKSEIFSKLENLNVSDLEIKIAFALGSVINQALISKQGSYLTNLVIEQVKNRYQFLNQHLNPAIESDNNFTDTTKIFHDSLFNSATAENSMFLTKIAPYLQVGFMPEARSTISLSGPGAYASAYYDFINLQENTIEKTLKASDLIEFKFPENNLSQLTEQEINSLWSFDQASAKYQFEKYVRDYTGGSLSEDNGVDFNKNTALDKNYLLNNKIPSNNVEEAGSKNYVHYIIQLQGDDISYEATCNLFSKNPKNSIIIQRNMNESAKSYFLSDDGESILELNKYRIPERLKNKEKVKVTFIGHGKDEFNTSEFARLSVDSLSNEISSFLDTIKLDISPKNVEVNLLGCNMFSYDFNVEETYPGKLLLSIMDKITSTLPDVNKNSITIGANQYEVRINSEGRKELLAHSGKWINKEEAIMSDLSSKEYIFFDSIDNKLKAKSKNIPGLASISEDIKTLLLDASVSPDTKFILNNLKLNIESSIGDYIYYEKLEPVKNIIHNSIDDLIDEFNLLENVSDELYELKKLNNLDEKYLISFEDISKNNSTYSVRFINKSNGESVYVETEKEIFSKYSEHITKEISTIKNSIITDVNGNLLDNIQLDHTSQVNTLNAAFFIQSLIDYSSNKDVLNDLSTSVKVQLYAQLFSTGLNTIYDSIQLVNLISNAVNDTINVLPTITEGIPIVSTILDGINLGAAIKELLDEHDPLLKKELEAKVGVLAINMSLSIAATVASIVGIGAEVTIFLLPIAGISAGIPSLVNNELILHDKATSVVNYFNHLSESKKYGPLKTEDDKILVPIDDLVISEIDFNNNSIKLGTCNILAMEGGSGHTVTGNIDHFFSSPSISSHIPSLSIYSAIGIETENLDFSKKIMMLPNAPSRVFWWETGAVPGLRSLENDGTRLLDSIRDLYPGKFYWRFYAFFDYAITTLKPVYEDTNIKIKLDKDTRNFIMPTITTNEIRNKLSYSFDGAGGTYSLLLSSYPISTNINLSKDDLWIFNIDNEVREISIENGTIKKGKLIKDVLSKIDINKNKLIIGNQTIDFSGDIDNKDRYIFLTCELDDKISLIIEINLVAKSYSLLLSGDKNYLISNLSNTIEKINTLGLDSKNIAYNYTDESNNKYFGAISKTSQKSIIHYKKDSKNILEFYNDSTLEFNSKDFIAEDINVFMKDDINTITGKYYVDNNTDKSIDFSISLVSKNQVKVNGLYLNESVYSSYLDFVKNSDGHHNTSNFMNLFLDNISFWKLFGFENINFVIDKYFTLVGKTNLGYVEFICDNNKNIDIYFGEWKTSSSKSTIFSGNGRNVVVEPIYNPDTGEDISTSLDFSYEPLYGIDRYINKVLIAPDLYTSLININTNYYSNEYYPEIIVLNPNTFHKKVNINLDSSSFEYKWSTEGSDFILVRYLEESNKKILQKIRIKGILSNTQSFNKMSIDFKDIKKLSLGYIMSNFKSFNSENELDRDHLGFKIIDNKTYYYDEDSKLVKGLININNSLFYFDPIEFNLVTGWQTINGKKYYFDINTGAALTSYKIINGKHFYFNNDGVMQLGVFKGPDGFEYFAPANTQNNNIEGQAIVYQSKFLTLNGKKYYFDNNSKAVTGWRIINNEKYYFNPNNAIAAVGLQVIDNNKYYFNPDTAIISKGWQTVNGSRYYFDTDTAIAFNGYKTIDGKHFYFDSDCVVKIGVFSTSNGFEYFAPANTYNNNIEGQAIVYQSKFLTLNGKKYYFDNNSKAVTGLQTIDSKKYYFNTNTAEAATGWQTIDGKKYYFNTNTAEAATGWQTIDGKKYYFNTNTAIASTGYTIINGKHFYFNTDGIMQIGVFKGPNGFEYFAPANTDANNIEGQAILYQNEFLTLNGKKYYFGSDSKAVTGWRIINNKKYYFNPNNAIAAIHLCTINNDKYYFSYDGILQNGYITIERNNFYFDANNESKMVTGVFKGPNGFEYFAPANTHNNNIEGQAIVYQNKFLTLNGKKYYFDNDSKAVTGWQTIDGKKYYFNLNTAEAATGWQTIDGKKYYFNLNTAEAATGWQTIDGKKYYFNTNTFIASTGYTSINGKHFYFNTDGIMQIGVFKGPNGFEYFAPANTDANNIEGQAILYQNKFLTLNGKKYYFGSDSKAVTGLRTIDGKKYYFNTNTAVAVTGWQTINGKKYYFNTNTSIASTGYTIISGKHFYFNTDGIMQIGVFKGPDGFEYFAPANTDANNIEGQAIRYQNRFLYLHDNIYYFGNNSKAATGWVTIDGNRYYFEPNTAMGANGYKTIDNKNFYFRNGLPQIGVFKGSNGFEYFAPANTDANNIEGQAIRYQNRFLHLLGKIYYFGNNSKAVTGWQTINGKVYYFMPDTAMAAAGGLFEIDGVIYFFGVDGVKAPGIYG

Regarding EFWMGRHH [SA5], the “TcdA binding performance in bead-based screen” value (from here on “TcdA binding performance”) is reported as “performed significantly better than those from Case 3 (SA6, SA7)”.

With MFWEHRHR [SA4], the “TcdA binding performance” value is “performed significantly better than those from Case 3 (SA6, SA7)”.

Consider QDWMRRHW [SA2], for which the “TcdA binding performance” value is recorded as “performed significantly better than those from Case 3 (SA6, SA7)”.
